Experimental findings from ChEMBL document CHEMBL1743341, “Cytochrome p450 enzymes mechanism based inhibitors: common sub-structures and reactivity” (Curr Drug Metab, 2005) are described below.

SMILES strings stand for the structures.

Holding throughout (assay type): ADME
Series [1] has as its target T1, Cytochrome P450 2B6 (Homo sapiens, UniProt P20813).
T1 sequence (P20813 whole entry): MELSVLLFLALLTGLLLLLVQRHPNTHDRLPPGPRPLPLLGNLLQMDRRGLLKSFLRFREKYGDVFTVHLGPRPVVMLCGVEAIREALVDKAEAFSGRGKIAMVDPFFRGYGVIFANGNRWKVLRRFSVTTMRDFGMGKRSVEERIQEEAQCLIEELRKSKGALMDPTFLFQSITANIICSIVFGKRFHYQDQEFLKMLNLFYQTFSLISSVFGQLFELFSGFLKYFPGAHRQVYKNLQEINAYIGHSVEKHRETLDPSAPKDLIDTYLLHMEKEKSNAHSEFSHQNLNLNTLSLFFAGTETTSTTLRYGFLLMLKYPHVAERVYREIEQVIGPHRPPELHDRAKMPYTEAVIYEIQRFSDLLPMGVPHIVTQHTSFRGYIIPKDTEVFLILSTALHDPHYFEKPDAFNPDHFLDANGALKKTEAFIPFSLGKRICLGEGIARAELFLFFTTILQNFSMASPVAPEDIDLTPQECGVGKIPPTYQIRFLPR
Description: Mechanism based inhibition of human cytochrome P450 2B6, partition ratio.

Series [2] deals with T2, Cytochrome P450 2B1 (Rattus norvegicus, UniProt P00176).
T2 sequence (P00176 whole entry): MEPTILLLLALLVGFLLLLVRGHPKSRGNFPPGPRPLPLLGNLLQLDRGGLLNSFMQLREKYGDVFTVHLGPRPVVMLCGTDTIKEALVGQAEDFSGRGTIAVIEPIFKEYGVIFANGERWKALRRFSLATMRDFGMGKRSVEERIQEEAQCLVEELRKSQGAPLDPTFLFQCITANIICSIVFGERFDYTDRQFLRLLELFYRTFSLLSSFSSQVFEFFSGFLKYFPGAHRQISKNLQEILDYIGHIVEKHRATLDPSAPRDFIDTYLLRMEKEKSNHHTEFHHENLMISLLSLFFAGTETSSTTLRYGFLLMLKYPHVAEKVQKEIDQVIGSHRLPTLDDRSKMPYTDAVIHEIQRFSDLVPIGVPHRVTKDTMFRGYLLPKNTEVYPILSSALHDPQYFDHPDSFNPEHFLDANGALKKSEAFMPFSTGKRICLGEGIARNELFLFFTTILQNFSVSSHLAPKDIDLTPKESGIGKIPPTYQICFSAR
The series can be described thus: Mechanism based inhibition of rat cytochrome P450 2B1, partition ratio.

The target in series [3] is T2, Cytochrome P450 2B1. Description: (§1) Mechanism based inhibition of rat cytochrome P450 2B1.
Series [4] addresses T3, CYP2B1 (Rattus norvegicus, UniProt P00176).
T3 sequence (P00176 whole entry): T2 sequence (P00176 whole entry)
Described as §1. The settings on record: rat.

In series [5] the target is T4, CYP2B6 (Homo sapiens, UniProt P20813).
T4 sequence (P20813 whole entry): T1 sequence (P20813 whole entry)
The series can be described thus: (§2) Mechanism based inhibition of human cytochrome P450 2B6. The settings on record: human.

The target of series [6] is T1, Cytochrome P450 2B6. The description is as §2.
In series [7] the target is Cytochrome P450 2C9 (Homo sapiens, UniProt P11712). Description: Mechanism based inhibition of human cytochrome P450 2C9.
Series [8] concerns the target T5, Cytochrome P450 1A2 (Homo sapiens, UniProt P05177).
T5 sequence (P05177 whole entry): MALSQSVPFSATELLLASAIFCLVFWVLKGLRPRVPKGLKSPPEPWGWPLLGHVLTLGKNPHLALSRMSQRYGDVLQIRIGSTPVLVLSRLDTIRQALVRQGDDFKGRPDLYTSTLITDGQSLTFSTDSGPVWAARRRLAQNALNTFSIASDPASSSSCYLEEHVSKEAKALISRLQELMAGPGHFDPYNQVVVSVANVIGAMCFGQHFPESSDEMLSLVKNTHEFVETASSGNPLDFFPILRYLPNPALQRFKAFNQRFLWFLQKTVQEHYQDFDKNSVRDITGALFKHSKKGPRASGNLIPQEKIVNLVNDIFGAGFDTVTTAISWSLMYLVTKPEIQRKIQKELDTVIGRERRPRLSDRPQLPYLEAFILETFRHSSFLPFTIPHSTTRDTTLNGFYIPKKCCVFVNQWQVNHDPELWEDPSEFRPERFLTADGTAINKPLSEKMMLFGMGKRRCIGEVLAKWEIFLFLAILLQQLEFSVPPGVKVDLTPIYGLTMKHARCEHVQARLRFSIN
The series can be described thus: Mechanism based inhibition of human cytochrome P450 1A2 measured by 7-ethoxyresorufin O-deethylation (EROD).

Series [9] addresses T6, Cytochrome P450 1A1 (Rattus norvegicus, UniProt P00185).
T6 sequence (P00185 whole entry): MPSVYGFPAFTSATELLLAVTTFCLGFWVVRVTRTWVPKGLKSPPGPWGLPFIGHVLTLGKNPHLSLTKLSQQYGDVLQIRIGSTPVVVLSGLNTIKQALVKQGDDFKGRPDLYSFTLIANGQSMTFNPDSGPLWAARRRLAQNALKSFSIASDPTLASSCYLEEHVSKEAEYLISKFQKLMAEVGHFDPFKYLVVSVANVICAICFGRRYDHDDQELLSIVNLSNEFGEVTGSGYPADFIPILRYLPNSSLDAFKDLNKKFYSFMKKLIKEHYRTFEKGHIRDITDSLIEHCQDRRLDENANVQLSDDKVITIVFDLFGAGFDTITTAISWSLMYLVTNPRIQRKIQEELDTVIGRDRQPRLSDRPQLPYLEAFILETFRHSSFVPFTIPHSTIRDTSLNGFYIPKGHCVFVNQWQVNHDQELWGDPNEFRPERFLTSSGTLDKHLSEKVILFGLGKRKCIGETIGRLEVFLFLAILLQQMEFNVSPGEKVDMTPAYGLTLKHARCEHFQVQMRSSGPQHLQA
The series can be described thus: Mechanism based inhibition of rat cytochrome P450 CYP1A1.

The target of series [10] is T7, Cytochrome P450 1B1 (Homo sapiens, UniProt Q16678).
T7 sequence (Q16678 whole entry): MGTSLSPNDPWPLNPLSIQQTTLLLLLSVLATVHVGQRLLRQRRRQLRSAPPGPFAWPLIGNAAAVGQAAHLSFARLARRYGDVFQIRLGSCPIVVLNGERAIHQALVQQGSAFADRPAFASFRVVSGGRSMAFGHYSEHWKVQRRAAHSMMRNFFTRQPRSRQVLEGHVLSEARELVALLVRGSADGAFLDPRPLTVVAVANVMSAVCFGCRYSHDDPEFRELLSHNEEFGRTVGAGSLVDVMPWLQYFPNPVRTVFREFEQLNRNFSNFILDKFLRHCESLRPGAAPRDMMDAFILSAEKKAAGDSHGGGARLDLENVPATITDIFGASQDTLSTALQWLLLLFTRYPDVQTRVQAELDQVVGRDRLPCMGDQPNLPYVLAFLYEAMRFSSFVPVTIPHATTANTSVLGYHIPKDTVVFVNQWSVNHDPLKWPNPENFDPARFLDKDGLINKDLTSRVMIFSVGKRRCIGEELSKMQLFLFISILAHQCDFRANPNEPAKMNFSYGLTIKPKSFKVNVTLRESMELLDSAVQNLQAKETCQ
Description: Mechanism based inhibition of human cytochrome P450 1B1 measured by 7-ethoxyresorufin O-deethylation (EROD).

The target in series [11] is T8, Cytochrome P450 1A1 (Homo sapiens, UniProt P04798).
T8 sequence (P04798 whole entry): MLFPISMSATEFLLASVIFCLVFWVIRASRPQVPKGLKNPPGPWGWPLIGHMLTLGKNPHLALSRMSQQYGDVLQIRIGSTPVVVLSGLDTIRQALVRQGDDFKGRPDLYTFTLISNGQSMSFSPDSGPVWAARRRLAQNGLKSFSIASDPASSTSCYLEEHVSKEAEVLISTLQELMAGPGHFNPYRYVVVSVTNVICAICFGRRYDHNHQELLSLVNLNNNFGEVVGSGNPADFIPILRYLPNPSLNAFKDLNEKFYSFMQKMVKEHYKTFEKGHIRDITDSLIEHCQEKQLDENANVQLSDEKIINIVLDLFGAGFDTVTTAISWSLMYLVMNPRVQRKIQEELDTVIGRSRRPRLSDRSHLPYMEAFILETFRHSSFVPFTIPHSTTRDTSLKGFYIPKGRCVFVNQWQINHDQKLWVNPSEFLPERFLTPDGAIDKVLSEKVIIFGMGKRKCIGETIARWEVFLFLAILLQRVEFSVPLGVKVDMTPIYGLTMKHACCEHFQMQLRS
Description: (§3) Mechanism based inhibition of human cytochrome P450 1A1 measured by 7-ethoxyresorufin O-deethylation (EROD).

Series [12] addresses CYP1A1 (Homo sapiens, UniProt P04798). Described as §3. The settings on record: human, probe 7-ethoxyresorufin (O-deethylation, EROD).
The target in series [13] is T9, CYP1A2 (Homo sapiens, UniProt P05177).
T9 sequence (P05177 whole entry): T5 sequence (P05177 whole entry)
The series can be described thus: (§4) Mechanism based inhibition of human cytochrome P450 1A2 measured by 7-methoxyresorufin O-demethylation (MROD). The settings on record: human, probe 7-methoxyresorufin (O-demethylation, MROD).

The target in series [14] is T5, Cytochrome P450 1A2. Described as §4.
For series [15], the target named is T2, Cytochrome P450 2B1. The series can be described thus: (§5) Mechanism based inhibition of rat cytochrome P450 CYP2B1 measured by 7-ethoxycoumarin O-deethylase activity.
Series [16] has as its target T3, CYP2B1. The series is described as §5. The settings on record: rat, probe 7-ethoxycoumarin (O-deethylase activity).
The target in series [17] is Cytochrome P450 11B1, mitochondrial (Bos taurus, UniProt P15150). The series can be described thus: Mechanism based inhibition of bovine cytochrome P450 CYP11B1. The note with it: cattle.
Chain of Cytochrome P450 11B1, mitochondrial (P15150 whole entry): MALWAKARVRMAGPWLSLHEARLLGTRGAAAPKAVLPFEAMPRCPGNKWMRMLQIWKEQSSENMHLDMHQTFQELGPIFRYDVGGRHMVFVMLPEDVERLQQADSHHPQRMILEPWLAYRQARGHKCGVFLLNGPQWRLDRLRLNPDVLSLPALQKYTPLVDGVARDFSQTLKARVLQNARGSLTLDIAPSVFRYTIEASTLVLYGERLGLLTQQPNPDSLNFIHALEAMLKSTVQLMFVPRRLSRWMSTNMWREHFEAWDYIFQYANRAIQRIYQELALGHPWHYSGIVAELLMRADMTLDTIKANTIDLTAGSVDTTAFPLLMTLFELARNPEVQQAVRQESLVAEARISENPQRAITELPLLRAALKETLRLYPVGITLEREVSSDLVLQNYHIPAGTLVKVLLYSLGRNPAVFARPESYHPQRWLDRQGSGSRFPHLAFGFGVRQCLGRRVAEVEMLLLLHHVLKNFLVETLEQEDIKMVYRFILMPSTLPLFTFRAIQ

Chain of Cytochrome P450 2C9 (P11712 whole entry): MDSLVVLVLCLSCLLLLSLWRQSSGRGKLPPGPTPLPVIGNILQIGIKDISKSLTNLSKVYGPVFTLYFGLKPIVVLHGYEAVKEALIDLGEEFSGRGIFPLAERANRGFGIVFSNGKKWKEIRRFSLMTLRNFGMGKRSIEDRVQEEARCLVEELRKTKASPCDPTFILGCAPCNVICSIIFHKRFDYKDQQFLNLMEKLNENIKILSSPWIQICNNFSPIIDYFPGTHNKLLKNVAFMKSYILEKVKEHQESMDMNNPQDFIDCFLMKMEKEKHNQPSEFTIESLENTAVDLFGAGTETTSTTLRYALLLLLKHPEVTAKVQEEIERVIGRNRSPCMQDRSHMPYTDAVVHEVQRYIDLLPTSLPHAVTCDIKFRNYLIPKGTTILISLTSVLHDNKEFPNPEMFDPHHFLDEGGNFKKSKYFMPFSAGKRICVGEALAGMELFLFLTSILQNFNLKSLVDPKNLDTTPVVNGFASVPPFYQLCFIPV

The kinact is the rate constant of inactivation at saturating inhibitor. With `CC(C)(c1ccccc1)N1CCCCC1`, the figures for the Partition ratio in series [1] and in series [2] were 15 and 31, respectively. The Ki turned out to be 12000 nM in series [3] and 1200 nM in series [6]. Also, the kinact was 0.005 s⁻¹ in series [4] and 0.00117 s⁻¹ in series [5]. For the same molecule, the mechanism based inhibition entry in [7] is given as “Cytochrome P450 mechanistic inhibitor: PMID 10901701”.

As to `CC#Cc1ccc(-c2ccccc2)cc1`, the mechanism based inhibition result is recorded as “Cytochrome P450 mechanistic inhibitor: PMID 9760279” in series [8], “Cytochrome P450 mechanistic inhibitor: PMID 9074808” in series [9], “Cytochrome P450 mechanistic inhibitor: PMID 9760279” in [10] and “Cytochrome P450 mechanistic inhibitor: PMID 9760279” in [11]. Besides, the values for the Ki in series [11] and in series [14] were 220 nM and 13 nM, respectively. Further, the kinact in series [12] was 0.00667 s⁻¹; in series [13], 0.00167 s⁻¹.

In the case of `C#Cc1ccc2ccccc2c1`, the mechanism based inhibition entry in series [8], in [10] and in [11] was “Cytochrome P450 mechanistic inhibitor: PMID 9760279” throughout. Moreover, in series [15], the Ki is 80 nM. For the same molecule, the kinact in [16] is 0.0138 s⁻¹.

As for `C=CC[C@]12CC[C@H]3[C@@H](CCC4=CC(=O)CC[C@@]43C)[C@@H]1CC[C@@H]2C(C)=O`, in series [17], the mechanism based inhibition result was “Cytochrome P450 mechanistic inhibitor: PMID 8645613”.
